The target of one assay is T1, FLAG-p38α (Homo sapiens, UniProt Q16539).
T1 construct: expressed in transfected cells; host or cells: HeLa
As to the kind of experiment: Ubiquitination assay, HeLa cells co-transfected with HA-Ub and FLAG-p38α. The assay is classed as cell-based. The note with it: 500 nM, 1 hour. How it is done: FIGS. 14A, 14B, and 14C. p38α selectivity is discriminated by ternary complex formation. (A) Only p38α incubated in the presence of exemplary compound 50 can be immunoprecipitated with GST-tagged VHL/EloB/EloC (VBC). Immobilized VBC was used as a bait to trap purified p38α in the presence of vehicle (DMSO), compound 50, or compound 46 (represented in micromolar concentrations). The rightmost lane represents a 1:25 dilution of initial input protein used in each pull-down. (B) Proximity-based AlphaLISA assay detects significant p38α:compound 50:VHL ternary complex, but no p38α:compound 46:VHL ternary complex. His-p38α and GST-VBC were incubated in the presence of increasing concentrations of compound 50 and compound 46 and the extent of ternary complex formation was assessed by excitation with incident light with 1=680 nm and capture of the emission light at 1=615 nm. Error bars represent the SD from quadruplicate experiments. (C) Only exemplary compound 50 ubiquitinates FLAG-p38α in HeLa cells. […] FLAGimmunoprecipitated lysates were separated by SDS-PAGE and assessed via western blots detecting HA (Ub). […]
HeLa cells (2×10^6) were seeded into 10 cm dishes and allowed to adhere overnight. […] Lysates were spun down at 14,000×g at 4° C. for 20 minutes and protein content was measured by Pierce BCA Protein Assay (ThermoFisher Scientific). […]

Another assay has as its target T2, cMET (Homo sapiens, UniProt P08581).
T2 construct: endogenous in cells; host or cells: MDA-MB-231
The experiment in a line: Cellular assay of target protein degradation (MDA-MB-231 cells, ELISA). The assay is classed as cell-based. How it is done:
Protocol of the cellular assay of target protein degradation (MDA-MB-231 cells, ELISA).
For detection Cell Signaling PathScan Sandwich ELISA Catalog#12850 was used. MDA-MB-231 cells and […] were cultured in ATCC DMEM+ATCC FBS and plated 40,000/well 100 μl/well in RPMI P/S with 5% CSS Omega (bovine) serum into a 96 well plate. The cells were grown for a minimum of 3 days, dosed with compounds in 0.1% DMSO (diluted with 5% CSS) and incubated with aspiration for 4 hours. 100 μl of 1× Cell Signaling lysis buffer #9803 (36 mL dH2O+4 mL Cell Signaling lysis buffer) was added. The incubation was placed on cold room shaker for 10 minutes at speed 8-9.5 μl to 100 μL of Diluent was transferred to ELISA plate (0.15 μg/mL-0.075 μg/mL) and stored at 4° C. overnight on cold room shaker speed 5 (gentle swirl) and then shaken next morning at 37° C. for 30 minutes. The preparation was washed 4×200 μl with ELISA wash buffer and aspirated with eight-channel aspirator. 100 μl/well of target protein detection antibody was added after, which the preparation was covered and shaken at 37° C. for 1 hour. 100 μl TMB was added, and the mixture was shaken for 5 min while under observation. When TMB turned light blue, 100 μl of Stop solution was added, and the mixture was shaken and read at 450 nm. Also read at 562 nm for background subtraction.
In general terms: ELISA stands for enzyme-linked immunosorbent assay.

Molecules are shown by their SMILES.

T2 sequence (P08581 25-1390): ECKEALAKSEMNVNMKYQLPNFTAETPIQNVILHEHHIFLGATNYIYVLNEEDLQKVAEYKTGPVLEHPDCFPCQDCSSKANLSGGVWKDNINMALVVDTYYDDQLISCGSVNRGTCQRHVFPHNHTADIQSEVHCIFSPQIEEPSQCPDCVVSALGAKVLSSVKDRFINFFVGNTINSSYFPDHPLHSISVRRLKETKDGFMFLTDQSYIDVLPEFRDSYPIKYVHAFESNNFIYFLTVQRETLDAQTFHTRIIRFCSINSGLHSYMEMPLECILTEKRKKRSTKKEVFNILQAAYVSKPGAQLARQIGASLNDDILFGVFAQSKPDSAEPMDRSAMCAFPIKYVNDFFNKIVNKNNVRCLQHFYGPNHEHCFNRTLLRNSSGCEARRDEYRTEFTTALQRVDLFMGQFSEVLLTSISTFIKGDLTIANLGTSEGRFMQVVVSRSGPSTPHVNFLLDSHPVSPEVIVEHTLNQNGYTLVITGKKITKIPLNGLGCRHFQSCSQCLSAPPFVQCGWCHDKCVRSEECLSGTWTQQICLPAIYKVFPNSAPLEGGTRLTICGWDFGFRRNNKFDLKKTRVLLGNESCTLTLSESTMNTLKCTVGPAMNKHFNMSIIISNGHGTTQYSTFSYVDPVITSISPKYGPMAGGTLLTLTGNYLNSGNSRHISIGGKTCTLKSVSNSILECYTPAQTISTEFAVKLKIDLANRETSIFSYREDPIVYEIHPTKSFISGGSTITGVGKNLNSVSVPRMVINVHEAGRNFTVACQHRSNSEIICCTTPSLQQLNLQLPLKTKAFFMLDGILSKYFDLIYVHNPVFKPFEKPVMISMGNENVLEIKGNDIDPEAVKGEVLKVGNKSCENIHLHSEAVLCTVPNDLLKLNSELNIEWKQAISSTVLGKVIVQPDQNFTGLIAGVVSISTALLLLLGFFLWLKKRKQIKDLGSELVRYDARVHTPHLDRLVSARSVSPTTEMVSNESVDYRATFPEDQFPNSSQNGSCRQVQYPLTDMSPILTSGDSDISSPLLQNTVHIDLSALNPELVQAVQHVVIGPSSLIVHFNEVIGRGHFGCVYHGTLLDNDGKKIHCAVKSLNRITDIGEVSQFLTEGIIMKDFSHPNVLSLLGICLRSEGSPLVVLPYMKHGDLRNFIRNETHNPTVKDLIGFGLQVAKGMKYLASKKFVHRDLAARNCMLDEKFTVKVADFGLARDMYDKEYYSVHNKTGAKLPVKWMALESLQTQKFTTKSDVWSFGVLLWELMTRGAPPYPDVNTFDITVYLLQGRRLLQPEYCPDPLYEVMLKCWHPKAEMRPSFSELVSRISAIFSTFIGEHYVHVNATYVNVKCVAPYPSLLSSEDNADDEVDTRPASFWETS
T1 sequence (Q16539 whole entry): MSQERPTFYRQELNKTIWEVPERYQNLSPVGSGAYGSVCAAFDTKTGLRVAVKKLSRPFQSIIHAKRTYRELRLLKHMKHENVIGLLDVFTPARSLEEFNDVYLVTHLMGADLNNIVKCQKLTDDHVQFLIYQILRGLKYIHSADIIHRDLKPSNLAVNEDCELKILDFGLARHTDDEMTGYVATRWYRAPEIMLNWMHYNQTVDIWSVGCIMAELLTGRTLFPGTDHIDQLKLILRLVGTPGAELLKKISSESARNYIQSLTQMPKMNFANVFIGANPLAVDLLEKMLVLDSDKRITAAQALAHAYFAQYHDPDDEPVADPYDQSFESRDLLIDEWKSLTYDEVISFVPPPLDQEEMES

As to `COc1cc2c(Oc3ccc(NC(=O)C4(C(=O)Nc5ccc(F)cc5)CC4)cc3F)ccnc2cc1OCCOCCOCCOc1cc(-c2scnc2C)ccc1CNC(=O)[C@@H]1C[C@@H](O)CN1C(=O)[C@H](C(C)C)N1Cc2ccccc2C1=O` [compound 46], the “ubiquitination of FLAG-p38α” value at FLAG-p38α is given as “this effect was not seen”.
On to `COc1cc2c(Oc3ccc(NC(=O)C4(C(=O)Nc5ccc(F)cc5)CC4)cc3F)ccnc2cc1OCCCCOCCCCOCC(=O)N[C@H](C(=O)N1C[C@H](O)C[C@H]1C(=O)NCc1ccc(-c2scnc2C)cc1)C(C)(C)C` [compound 50, N-(3-fluoro-4-((7-(4-(4-(2-(((S)-1-((2S,4R)-4-hydroxy-2-((4-(4-methylthiazol-5-yl)benzyl)carbamoyl)pyrrolidin-1-yl)-3,3-dimethyl-1-oxobutan-2-yl)amino)-2-oxoethoxy)butoxy)buto-xy)-6-methoxyquinolin-4-yl)oxy)phenyl)-N-(4-fluorophenyl)cyclopropane-1,1-dicarboxa-mide], for which the “ubiquitination of FLAG-p38α” value at FLAG-p38α is “substantial ubiquitination”. At cMET, the DC50 was found to be 36 nM and the Dmax came out at 88%.
With `COc1cc2c(Oc3ccc(NC(=O)C4(C(=O)Nc5ccc(F)cc5)CC4)cc3F)ccnc2cc1OCCCOCCCOCCC(=O)N[C@H](C(=O)N1C[C@H](O)C[C@H]1C(=O)NCc1ccc(-c2scnc2C)cc1)C(C)(C)C` [Example 1], the “c-Met protein degradation (dose response)” value on cMET (ELISA) is reported as “significant targeted degradation”.

For orientation: DC50 means the midpoint of the concentration-degradation curve. Low readings indicate a more potent degrader, high ones a less potent degrader. One may read the Dmax as the largest share of the target that was removed. A high value points to a fuller loss of target.

The values are drawn from patent US20180353501A1 (Arvinas, Inc., priority 2017, published 2018).
